According to patent US20220168430A1, “THERAPEUTIC METHODS FOR TREATING HEPATITIS B” (priority 2019, published 2022):
Like-named read-outs stand apart in the source and are kept apart here.

System: HBV rcDNA
Test: Dual agent combination in HepDE19 cells, rcDNA by Quantigene 2.0 bDNA assay (Examples 5-8)
Format: cell-based, HBV; HepDE19 (HepG2 human hepatocarcinoma derived)
Conditions: Hepatitis B virus; for EC50: read-out: Avg. Inhibitor A EC50
Experimental: In vitro dual agent combination studies were conducted using the method of Prichard and Shipman 1990 (Prichard M N, Shipman C, Jr. 1990. Antiviral Res 14:181-205). The HepDE19 cell culture system is a HepG2 (human hepatocarcinoma) derived cell line that supports HBV DNA replication and cccDNA formation under control the control of a CMV Tet-off promoter system (Guo et al. 2007. J Virol 81:12472-84). HepDE19 (50,000 cells/well) were plated in 96 well collagen-coated tissue-culture treated microtiter plates in DMEM/F12 medium supplemented with 10% fetal bovine serum+1% penicillin-streptomycin with tetracycline (1 μg/mL) and incubated in a humidified incubator at 37° C. and 5% CO2 overnight. Next day, the cells were switched to fresh medium without tetracycline and incubated for 4 hrs at 37° C. and 5% CO2. The cells were switched to fresh medium and treated with inhibitor A and inhibitor B, at concentration range spanning their respective EC50 values. […] The two inhibitors were tested both singly as well as in combinations in a checkerboard fashion such that each concentration of inhibitor A was combined with each concentration of inhibitor B to determine their combination effects on inhibition of rcDNA production. There were four replicates of each concentration combination in each experiment. The plates were incubated for 7 days in a humidified incubator at 37° C. and 5% CO2. The level of rcDNA present in the wells was measured using a Quantigene 2.0 bDNA assay kit (Affymetrix, Santa Clara, Calif.) with HBV specific custom probe set (genotype D ayw) and according to the manufacturer's instructions and read using a luminescence plate reader and the relative luminescence units (RLU) data generated from each well was calculated as % inhibition of the untreated control wells and analyzed using the MacSynergy II program to determine whether the combinations were synergistic, additive or antagonistic using the interpretive guidelines established by Prichard and Shipman (Prichard M N, Shipman C, Jr. 1990. […] Each experiment was repeated at least three times and the averages and standard deviations of individual determinations was calculated to derive the conclusion. Concurrently, in each experiment, the effect of inhibitor combinations on cell viability was assessed using replicate plates in triplicates that were used to determine the ATP content as a measure of cell viability using the Cell-Titer Glo reagent (Promega, Madison, Wis.) as per the manufacturer's instructions.

With `Cn1cnc(COC(=O)N[C@H]2CCc3c(C(=O)Nc4ccc(F)c(Cl)c4)ccc(F)c32)n1` [Compound 1] as the compound, how does the inhibition at 0.005 µM (HepDE19, Cmpd 1 0.005 μM, ETV μM by grid row: r7 0.0250, r8 0.0083, r9 0.0028, r10 0.0009, r11 0.0003, r12 0, HepDE19 cells, Expt 1, read-out: AVERAGE % INHIBITION, rcDNA) read?
Its inhibition at 0.005 µM is -5.55%.

What about the inhibition at 0.01 µM (HepDE19, Cmpd 1 0.010 μM, ETV μM by grid row: r7 0.0250, r8 0.0083, r9 0.0028, r10 0.0009, r11 0.0003, r12 0, HepDE19 cells, Expt 1, read-out: AVERAGE % INHIBITION, rcDNA) of the same compound?
Its inhibition at 0.01 µM is -2.14%.

And the inhibition at 0.02 µM (HepDE19, Cmpd 1 0.020 μM, ETV μM by grid row: r7 0.0250, r8 0.0083, r9 0.0028, r10 0.0009, r11 0.0003, r12 0, HepDE19 cells, Expt 1, read-out: AVERAGE % INHIBITION, rcDNA)?
The inhibition at 0.02 µM was 20.8%.

What about the inhibition at 0.039 µM (HepDE19, Cmpd 1 0.039 μM, ETV μM by grid row: r7 0.0250, r8 0.0083, r9 0.0028, r10 0.0009, r11 0.0003, r12 0, HepDE19 cells, Expt 1, read-out: AVERAGE % INHIBITION, rcDNA) of the same compound?
Its inhibition at 0.039 µM is 28.3%.

What about the inhibition at 0.156 µM (HepDE19, Cmpd 1 0.156 μM, ETV μM by grid row: r7 0.0250, r8 0.0083, r9 0.0028, r10 0.0009, r11 0.0003, r12 0, HepDE19 cells, Expt 1, read-out: AVERAGE % INHIBITION, rcDNA) of the same compound?
The inhibition at 0.156 µM was 82%.

What about the inhibition at 1.25 µM (HepDE19, Cmpd 1 1.25 μM, ETV μM by grid row: r7 0.0250, r8 0.0083, r9 0.0028, r10 0.0009, r11 0.0003, r12 0, HepDE19 cells, Expt 1, read-out: AVERAGE % INHIBITION, rcDNA) of the same compound?
Its inhibition at 1.25 µM is 98.9%.

And the EC50 (HepDE19, Cmpd 1 in combination study with ETV, n = 3)?
The EC50 was 59 nM.

And the EC50 (HepDE19, Cmpd 1 in combination study with SIRNA-NP, n = 3)?
Its EC50 is 64 nM.

And the EC50 (HepDE19, Cmpd 1 in combination study with TAF, n = 4)?
The EC50 was 74 nM.

And the EC50 (HepDE19, Cmpd 1 in combination study with TDF, n = 3)?
Its EC50 is 80 nM.

What about the inhibition at 0.005 µM (HepDE19, Expt 1 (with TDF), Compound 1 0.005 μM alone, read-out: ADDITIVE INHIBITION) of the same compound?
Its inhibition at 0.005 µM is -44.9%.

And the inhibition at 0.005 µM (HepDE19, Expt 1 (with TDF), Compound 1 0.005 μM alone, read-out: AVERAGE % INHIBITION)?
The inhibition at 0.005 µM was -44.9%.

And the inhibition at 0.01 µM (HepDE19, Expt 1 (with TDF), Compound 1 0.010 μM alone, read-out: ADDITIVE INHIBITION)?
Its inhibition at 0.01 µM is -40.7%.

What about the inhibition at 0.01 µM (HepDE19, Expt 1 (with TDF), Compound 1 0.010 μM alone, read-out: AVERAGE % INHIBITION) of the same compound?
The inhibition at 0.01 µM was -40.7%.

And the inhibition at 0.02 µM (HepDE19, Expt 1 (with TDF), Compound 1 0.020 μM alone, read-out: ADDITIVE INHIBITION)?
The inhibition at 0.02 µM was -21.6%.

What about the inhibition at 0.02 µM (HepDE19, Expt 1 (with TDF), Compound 1 0.020 μM alone, read-out: AVERAGE % INHIBITION) of the same compound?
The inhibition at 0.02 µM was -21.6%.

And the inhibition at 0.039 µM (HepDE19, Expt 1 (with TDF), Compound 1 0.039 μM alone, read-out: ADDITIVE INHIBITION)?
The inhibition at 0.039 µM was 0.64%.

And the inhibition at 0.039 µM (HepDE19, Expt 1 (with TDF), Compound 1 0.039 μM alone, read-out: AVERAGE % INHIBITION)?
The inhibition at 0.039 µM was 0.64%.

What about the inhibition at 0.156 µM (HepDE19, Expt 1 (with TDF), Compound 1 0.156 μM alone, read-out: ADDITIVE INHIBITION) of the same compound?
The inhibition at 0.156 µM was 68.2%.

And the inhibition at 0.156 µM (HepDE19, Expt 1 (with TDF), Compound 1 0.156 μM alone, read-out: AVERAGE % INHIBITION)?
The inhibition at 0.156 µM was 68.2%.

And the inhibition at 1.25 µM (HepDE19, Expt 1 (with TDF), Compound 1 1.250 μM alone, read-out: ADDITIVE INHIBITION)?
Its inhibition at 1.25 µM is 97.3%.

And the inhibition at 1.25 µM (HepDE19, Expt 1 (with TDF), Compound 1 1.250 μM alone, read-out: AVERAGE % INHIBITION)?
Its inhibition at 1.25 µM is 97.3%.

And the inhibition at 0.007 µM (HepDE19, Expt 1, Cmpd 1 0.007 μM alone, read-out: AVERAGE % INHIBITION)?
The inhibition at 0.007 µM was -23.5%.

And the inhibition at 0.067 µM (HepDE19, Expt 1, Cmpd 1 0.067 μM alone)?
The inhibition at 0.067 µM was 43.7%.

And the inhibition at 0.2 µM (HepDE19, Expt 1, Cmpd 1 0.200 μM alone)?
Its inhibition at 0.2 µM is 78.4%.

What about the inhibition at 0.6 µM (HepDE19, Expt 1, Cmpd 1 0.600 μM alone) of the same compound?
Its inhibition at 0.6 µM is 92.9%.

And the inhibition at 0.005 µM (HepDE19, Expt 1, Compound 1 0.005 μM alone, read-out: AVERAGE % INHIBITION)?
Its inhibition at 0.005 µM is -81.7%.

What about the inhibition at 0.01 µM (HepDE19, Expt 1, Compound 1 0.010 μM alone, read-out: AVERAGE % INHIBITION) of the same compound?
The inhibition at 0.01 µM was -86.4%.

What about the inhibition at 0.02 µM (HepDE19, Expt 1, Compound 1 0.020 μM alone, read-out: AVERAGE % INHIBITION) of the same compound?
The inhibition at 0.02 µM was -84.7%.

And the inhibition at 0.039 µM (HepDE19, Expt 1, Compound 1 0.039 μM alone, read-out: AVERAGE % INHIBITION)?
Its inhibition at 0.039 µM is -14.2%.

What about the inhibition at 0.156 µM (HepDE19, Expt 1, Compound 1 0.156 μM alone, read-out: AVERAGE % INHIBITION) of the same compound?
The inhibition at 0.156 µM was 59.4%.

And the inhibition at 1.25 µM (HepDE19, Expt 1, Compound 1 1.250 μM alone, read-out: AVERAGE % INHIBITION)?
Its inhibition at 1.25 µM is 98.3%.

What about the inhibition at 0.007 µM (HepDE19, Expt 2 (with TDF), Compound 1 0.007 μM alone, read-out: AVERAGE % INHIBITION) of the same compound?
The inhibition at 0.007 µM was -35.1%.

What about the inhibition at 0.067 µM (HepDE19, Expt 2 (with TDF), Compound 1 0.067 μM alone) of the same compound?
The inhibition at 0.067 µM was 28.1%.

What about the inhibition at 0.2 µM (HepDE19, Expt 2 (with TDF), Compound 1 0.200 μM alone) of the same compound?
The inhibition at 0.2 µM was 80.5%.

What about the inhibition at 0.6 µM (HepDE19, Expt 2 (with TDF), Compound 1 0.600 μM alone) of the same compound?
The inhibition at 0.6 µM was 95.2%.

What about the inhibition at 0.005 µM (HepDE19, Expt 2, Cmpd 1 0.005 μM alone, read-out: AVERAGE % INHIBITION) of the same compound?
Its inhibition at 0.005 µM is 5.58%.

And the inhibition at 0.01 µM (HepDE19, Expt 2, Cmpd 1 0.010 μM alone, read-out: AVERAGE % INHIBITION)?
The inhibition at 0.01 µM was -0.61%.

And the inhibition at 0.02 µM (HepDE19, Expt 2, Cmpd 1 0.020 μM alone, read-out: AVERAGE % INHIBITION)?
Its inhibition at 0.02 µM is 6.6%.

And the inhibition at 0.039 µM (HepDE19, Expt 2, Cmpd 1 0.039 μM alone, read-out: AVERAGE % INHIBITION)?
Its inhibition at 0.039 µM is 25.9%.

What about the inhibition at 0.156 µM (HepDE19, Expt 2, Cmpd 1 0.156 μM alone, read-out: AVERAGE % INHIBITION) of the same compound?
Its inhibition at 0.156 µM is 84.1%.

What about the inhibition at 1.25 µM (HepDE19, Expt 2, Cmpd 1 1.250 μM alone, read-out: AVERAGE % INHIBITION) of the same compound?
The inhibition at 1.25 µM was 98.3%.
